Source: ChEMBL document CHEMBL1221217 (Nat Chem Biol, 2008)
Active and inactive are the calls of the source. The calls are words filed in the database; no cut-off is given here.

Experiments:
[1] = target: Potassium voltage-gated channel subfamily A member 1 (Rattus norvegicus) (UniProt P10499); assay: Activation of KV1.1 expressed in Xenopus laevis oocytes coexpressing Kvbeta1 W155A mutant assessed as increase in steady state current normalized to initial inactivating current at 500 uM by electrophysiology method; conditions: Oocyte
Chain of Potassium voltage-gated channel subfamily A member 1 (Rattus norvegicus) (P10499 whole entry, looked up, the tested form may be a part): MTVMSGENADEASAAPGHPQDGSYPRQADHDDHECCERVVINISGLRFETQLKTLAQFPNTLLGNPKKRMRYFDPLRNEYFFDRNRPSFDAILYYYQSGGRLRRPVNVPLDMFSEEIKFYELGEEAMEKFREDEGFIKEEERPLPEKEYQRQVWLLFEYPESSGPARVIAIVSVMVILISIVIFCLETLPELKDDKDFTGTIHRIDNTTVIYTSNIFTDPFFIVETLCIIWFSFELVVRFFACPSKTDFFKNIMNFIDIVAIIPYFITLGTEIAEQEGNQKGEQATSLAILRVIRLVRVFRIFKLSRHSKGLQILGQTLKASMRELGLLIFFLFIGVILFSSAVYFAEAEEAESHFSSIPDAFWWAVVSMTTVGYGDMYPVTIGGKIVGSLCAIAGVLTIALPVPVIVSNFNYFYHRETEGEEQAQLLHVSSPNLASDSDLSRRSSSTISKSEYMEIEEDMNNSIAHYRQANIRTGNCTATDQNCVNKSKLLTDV

[2] = target: Potassium voltage-gated channel subfamily A member 1 (Rattus norvegicus) (UniProt P10499); assay: Activation of KV1.1 expressed in Xenopus laevis oocytes assessed as increase in steady state current normalized to initial inactivating current by electrophysiology method; conditions: Oocyte
[3] = target: Potassium voltage-gated channel subfamily A member 1 (Rattus norvegicus) (UniProt P10499); assay: Activation of KV1.1 expressed in Xenopus laevis oocytes coexpressing Kvbeta1 assessed as increase in steady state current normalized to initial inactivating current at 500 uM by electrophysiology method; conditions: Oocyte
[4] = Induction of dissociation of KV1.1 T1 domain/rat Kvbeta2 complex by solid phase binding assay
[5] = target: Potassium voltage-gated channel subfamily A member 1 (Rattus norvegicus) (UniProt P10499); assay: Activation of KV1.1 expressed in Xenopus laevis oocytes coexpressing Kvbeta1 assessed as increase in channel current at 500 uM by electrophysiology method; conditions: Oocyte
[6] = target: Voltage-gated potassium channel subunit beta-2 (Rattus norvegicus) (UniProt P62483); assay: Binding affinity to Kvbeta2 assessed as reduction of fluorescence by NADPH fluorescence spectrum based assay; parameters: scale not given: the % may be the effect or the level left
Chain of Voltage-gated potassium channel subunit beta-2 (Rattus norvegicus) (P62483 whole entry, looked up, the tested form may be a part): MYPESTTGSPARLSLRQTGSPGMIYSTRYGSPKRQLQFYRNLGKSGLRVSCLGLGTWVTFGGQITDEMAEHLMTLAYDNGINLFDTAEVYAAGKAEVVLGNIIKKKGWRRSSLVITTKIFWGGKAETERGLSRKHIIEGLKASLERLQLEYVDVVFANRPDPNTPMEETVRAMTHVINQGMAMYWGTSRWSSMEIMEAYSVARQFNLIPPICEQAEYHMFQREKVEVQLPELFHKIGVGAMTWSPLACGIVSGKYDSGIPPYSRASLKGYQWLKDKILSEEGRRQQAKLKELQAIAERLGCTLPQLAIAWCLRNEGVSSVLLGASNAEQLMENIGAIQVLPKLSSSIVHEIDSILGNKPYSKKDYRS

[7] = Induction of dissociation of KV1.1 T1 domain/rat Kvbeta2 I211R mutant complex at 2 mM by solid phase binding assay
[8] = target: Potassium voltage-gated channel subfamily A member 1 (Rattus norvegicus) (UniProt P10499); assay: Activation of KV1.1 expressed in Xenopus laevis oocytes coexpressing Kvbeta1 assessed as increase in steady state current normalized to initial inactivating current by electrophysiology method

Activity [1]: 93%
Activity [2]: 4.5%
Activity [3]: 84%
EC50 [4]: 68 µM
Activity [5]: Active
Activity [6]: 21%
Activity [7]: inactive
EC50 [8]: 46 µM
Compound: C[C@]12CCC(=O)C=C1CC[C@@H]1[C@@H]2C(=O)C[C@@]2(C)[C@H]1CC[C@]2(O)C(=O)CO [CORTISONE]
